The record followed here is patent US10925875B2 (National Jewish Health, priority 2018, dated 2021).

Type in all cases: cell-based, human
Data set [1] concerns intracellular IL5 expression in ILCs. In words: Intracellular IL5 by FCM in isolated Lin− blood cells. As to conditions: Dex 10^-7 M, 5 days. As for the experimental part: (§1) FIGS. 2C and 2D show lineage-negative (Lin−) cells (0.4×10^6 per culture) from peripheral blood obtained from 3 allergic rhinitis (non-asthmatic) patients were cultured with IL2/IL33 or IL2/TSLP with and without Dex (10^-7 M) for 5 days. Cell-free supernatant was analyzed for IL5 by ELISA. Cells were analyzed by FCM for intracellular IL5. P value for data on panel C was calculated by paired t test due to low N. Interleukin-2 (IL-2); interleukin-33 (IL-33).
(§2) The direct effect of Dex on isolated lineage− negative (Lin−) cells (representing ILCs) from the peripheral blood was examined. The effect of Dex was measured by two approaches: measurement of secreted IL5 by ELISA and measurement of the expression of intracellular IL5 by FCM. Dex inhibited IL5 secretion by IL2/IL33-stimulated ILCs by nearly 79% (FIG. 2C). In contrast, it inhibited IL5 secretion by IL2/TSLP-stimulated ILCs by only 25%. […] Dex inhibited intracellular IL5 expression in IL2/IL33- and IL2/TSLP-stimulated ILCs by 65% and 18%, respectively (FIG. 2D).

For data set [2], the system named is IL5+ ILC2s from the blood. The experiment in a line: Steroid response of blood IL5+ ILC2s by flow cytometry. As to conditions: MNC and BAL cells, Dex 10^−7M, 3 days, e-Fluor 780. As for the experimental part:
(§3) FIGS. 1A and 1B show the effect of dexamethasone (Dex) on blood (A) and bronchoalveolar lavage (BAL) (B) Type 2 innate lymphoid cells (ILC2s). Peripheral blood mononuclear cells (PBMC) and BAL cells from an asthmatic patient were cultured with vehicle (V, ethanol)) or dexamethasone (Dex 10^−7M), a synthetic steroid, for 3 days. The frequency of lin−CRTH2+IL7Rα+IL5+ cells (considered as markers of ILC2s) was measured by flow cytometry (FCM) and analyzed by FlowJo. Frequency of dead cells (measured by e-Fluor 780, e-Bioscience) was less than 10% and excluded from the gating. The difference in dead cells between V and Dex was less than 10%). Prostaglandin D2 receptor 2 (CRTH2); interleukin-7 receptor alpha (IL7Rα); interleukin-5 (IL-5).
FIGS. 1C and 1D show the cumulative data on the effect of dexamethasone (Dex) on blood (FIG. 1C) and BAL (FIG. 1D) lin−CRTH2+IL7Rα+IL5+ cells from 14 allergic asthmatic patients.
Steroid response of ILC2s from the bronchoalveolar lavage (BAL, obtained during bronchoscopy) and blood obtained from asthmatic patients was studied. Blood was processed to isolate mononuclear cells (MNC). BAL cells were studied without further processing. […] Interluekin-5 (IL5)-expressing ILC2s were examined by flow cytometry and analyzed by FlowJo. […] Frequency of dead cells (measured by e-Fluor 780, e-Bioscience) was less than 10% and excluded from the gating. […]
A general note: Flow cytometry measures light scatter and fluorescence of single cells or particles in a stream.

A further data set concerns MEK1/2 in ILC2s. The experiment in a line: Cytokine-induced MEK1/2 in ILC2s by FCM. As to conditions: PBMCs, IL2 plus TSLP with and without Dex, 5 days, lin−CRTH2+ cells. As for the experimental part:
FIGS. 4A and 4B show the effect of Dex on cytokine-induced MEK1 (MEK) induction. PBMCs from an asthmatic patient were cultured with medium or IL2 plus one of the two epithelial ILC-inducing cytokines—IL33 and TSLP with and without Dex for 5 days. The expression of MEK on gated live lin−CRTH2+ cells was analyzed by FCM.
Heightened MEK1/2 mediates steroid resistance of lymphocytes. The effect of IL33 and TSLP on MEK1/2 induction and the effect of Dex was examined.

The next data set has as its system IL5 secretion by ILCs. In words: Secreted IL5 by ELISA from isolated Lin− blood cells. As to conditions: Dex 10^-7 M, 5 days. The procedure:
as §1, §2
Background: In an ELISA, binding on a coated surface is turned into a signal by an enzyme label.

The subject of a further data set is BAL IL5+ ILC2s. In words: Steroid response of BAL IL5+ ILC2s by flow cytometry. As to conditions: BAL cells, MS 100 μM with and without Dex 10^−7M, 3 days. As for the experimental part: as §3, with “(IL-5). […]” for “(IL-5).”
BAL cells were cultured with MS (100 μM) with and without Dex (10^−7M) for 3 days. IL5 expression by lin−CRTH2+IL7Rα+ ILC2s was measured by FCM (N=8, *: P=0.0006 by Kruskal Walis test).
Steroid response of ILC2s from the bronchoalveolar lavage (BAL, obtained during bronchoscopy) and blood obtained from asthmatic patients was studied. […] Interluekin-5 (IL5)-expressing ILC2s were examined by flow cytometry and analyzed by FlowJo. […] Frequency of dead cells (measured by e-Fluor 780, e-Bioscience) was less than 10% and excluded from the gating. […]

Each structure is given as a SMILES string.

Turning to `C[C@@H]1C[C@H]2[C@@H]3CCC4=CC(=O)C=C[C@]4(C)[C@@]3(F)[C@@H](O)C[C@]2(C)[C@@]1(O)C(=O)CO` [Dex, dexamethasone], the “inhibition of intracellular IL5 expression” value came to 65% in data set [1] (IL2/IL33-stimulated ILCs) and 18% in data set [1] (IL2/TSLP-stimulated ILCs). Besides, the “difference in dead cells between V and Dex” value in data set [2] is listed as “less than 10%”. For the same compound, the “TSLP-induced MEK1/2” value with MEK1/2 in ILC2s is on record as “failed to inhibit”. In addition, the “inhibition of IL5 secretion” value in the data set on IL5 secretion by ILCs (IL2/IL33-stimulated ILCs) is about 79%; in the data set on IL5 secretion by ILCs (IL2/TSLP-stimulated ILCs) it was 25%. For the same compound, in the data set on BAL IL5+ ILC2s, the “inhibition of BAL IL5+ ILC2s” value is reported as “failed to inhibit”.
